Experimental data reported in patent publication US11325917B2, “Thienopyrazine carboxamides as ubiquitin-specific protease inhibitors” (Valo Health, Inc., priority 2016, dated 2022).

Tests used:
USP28 = USP28 (Homo sapiens (Human), UniProt Q96RU2); test: Ubiquitin-Rhodamine 110 Assay for USP28 Activity; type: biochemical; conditions: Ub-Rh110 substrate 25 nM
Protocol: Each assay was performed in a final volume of 20 μL in assay buffer containing 20 mM Tris-HCl (pH 8.0, (1M Tris-HCl, pH 8.0 solution; Corning 46-031-CM)), 2 mM CaCl2 (1M Calcium Chloride solution; Sigma #21114) 2 mM BME (2-Mercaptoethanol; Sigma 63689-25ML-F), 0.01% Prionex ([…] filtered, Sigma #G-0411), and 0.01% Triton X-100. Stock compound solutions were stored at −20° C. as 10 mM in DMSO. Up to 1 month prior to the assay, 2 mM test compounds were pre-dispensed into assay plates (Black, low volume; Corning #3820) and frozen at −20° C. Prestamped assay plates were allowed to come to room temperature on the day of the assay. […] Plates were incubated stacked for 90 minutes at room temperature before fluorescence was read on the Envision (Excitation at 485 nm and Emission at 535 nm; Perkin Elmer) or on the PheraSTAR (Excitation at 485 nm and Emission at 535 nm; BMG Labtech).
For follow-up studies, Each assay was performed in a final volume of 15 μL in assay buffer containing 20 mM Tris-HCl (pH 8.0, (1M Tris-HCl, pH 8.0 solution; Corning 46-031-CM)), 3 mM BME (2-Mercaptoethanol; Sigma 63689-25ML-F), 0.03% BGG ([…] filtered, Sigma, G7516-25G), and 0.01% Triton X-100 (Sigma, T9284-10L). […] Fluorescence was read on the Envision (Excitation at 485 nm and Emission at 535 nm; Perkin Elmer) or on the PheraSTAR (Excitation at 485 nm and Emission at 535 nm; BMG Labtech). […]

USP25 = USP25 (Homo sapiens (Human), UniProt Q9UHP3); test: Ubiquitin-Rhodamine 110 Assay for USP25 Activity; type: biochemical; conditions: Ub-Rh110 substrate 25 nM
USP25, sequence (Q9UHP3 whole entry): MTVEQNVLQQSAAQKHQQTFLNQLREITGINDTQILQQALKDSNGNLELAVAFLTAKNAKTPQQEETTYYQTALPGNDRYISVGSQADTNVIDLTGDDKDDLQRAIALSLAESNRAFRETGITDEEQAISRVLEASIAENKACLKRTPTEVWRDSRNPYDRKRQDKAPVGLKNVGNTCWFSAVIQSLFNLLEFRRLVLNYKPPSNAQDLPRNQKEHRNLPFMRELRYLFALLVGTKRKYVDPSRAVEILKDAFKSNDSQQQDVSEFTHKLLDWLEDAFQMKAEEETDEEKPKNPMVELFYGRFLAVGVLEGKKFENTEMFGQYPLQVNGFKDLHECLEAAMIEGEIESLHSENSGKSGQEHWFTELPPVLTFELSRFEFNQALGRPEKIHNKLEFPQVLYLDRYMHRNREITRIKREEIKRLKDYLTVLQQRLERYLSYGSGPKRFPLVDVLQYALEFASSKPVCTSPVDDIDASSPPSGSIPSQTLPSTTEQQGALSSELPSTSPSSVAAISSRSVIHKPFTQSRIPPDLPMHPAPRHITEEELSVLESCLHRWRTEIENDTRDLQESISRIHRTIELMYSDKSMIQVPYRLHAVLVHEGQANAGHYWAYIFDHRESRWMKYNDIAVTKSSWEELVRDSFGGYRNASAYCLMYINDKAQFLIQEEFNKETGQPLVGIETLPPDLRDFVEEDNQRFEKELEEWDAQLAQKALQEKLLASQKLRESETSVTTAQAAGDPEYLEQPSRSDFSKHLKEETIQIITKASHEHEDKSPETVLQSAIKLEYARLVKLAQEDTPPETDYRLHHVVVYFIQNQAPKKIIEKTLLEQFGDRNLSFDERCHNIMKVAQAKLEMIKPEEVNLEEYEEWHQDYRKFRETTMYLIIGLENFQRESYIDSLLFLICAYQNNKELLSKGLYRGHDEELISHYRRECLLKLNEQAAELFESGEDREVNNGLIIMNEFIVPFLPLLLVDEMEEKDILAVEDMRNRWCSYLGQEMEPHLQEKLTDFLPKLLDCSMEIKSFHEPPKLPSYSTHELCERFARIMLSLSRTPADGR
Protocol: The assay was performed in a final volume of 9 μL in assay buffer containing 20 mM Tris-HCl (pH 8.0, (1M Tris-HCl, pH 8.0 solution; Corning 46-031-CM)), 3 mM BME (2-Mercaptoethanol; Sigma 63689-25ML-F), 0.03% BGG (0.22 μM filtered, Sigma, G7516-25G), and 0.01% Triton X-100 (Sigma, T9284-10L). Nanoliter quantities of 10-point, 3-fold serial dilution in DMSO was pre-dispensed into 1536 assay plates (Corning, #3724BC) for a final test concentration of 25 μM to 1.3 nM, top to lowest dose, respectively. Enzyme USP25, construct USP25-His6, (Boston Biochem E-546). […] Fluorescence was read on the Envision (Excitation at 485 nm and Emission at 535 nm; Perkin Elmer) or on the PheraSTAR (Excitation at 485 nm and Emission at 535 nm; BMG Labtech).
For both the USP28 and USP25 assay formats Data were reported as percent inhibition compared with control wells based on the following equation: % inh=1−((FLU−AveLow)/(AveHigh−AveLow)) where FLU=measured Fluorescence, AveLow=average Fluorescence of no enzyme control (n=16), and AveHigh=average Fluorescence of DMSO control (n=16). IC50 values were determined by curve fitting of the standard 4 parameter logistic fitting algorithm included in the Activity Base software package: IDBS XE Designer Model205. […]

USP28, sequence (Q96RU2 whole entry): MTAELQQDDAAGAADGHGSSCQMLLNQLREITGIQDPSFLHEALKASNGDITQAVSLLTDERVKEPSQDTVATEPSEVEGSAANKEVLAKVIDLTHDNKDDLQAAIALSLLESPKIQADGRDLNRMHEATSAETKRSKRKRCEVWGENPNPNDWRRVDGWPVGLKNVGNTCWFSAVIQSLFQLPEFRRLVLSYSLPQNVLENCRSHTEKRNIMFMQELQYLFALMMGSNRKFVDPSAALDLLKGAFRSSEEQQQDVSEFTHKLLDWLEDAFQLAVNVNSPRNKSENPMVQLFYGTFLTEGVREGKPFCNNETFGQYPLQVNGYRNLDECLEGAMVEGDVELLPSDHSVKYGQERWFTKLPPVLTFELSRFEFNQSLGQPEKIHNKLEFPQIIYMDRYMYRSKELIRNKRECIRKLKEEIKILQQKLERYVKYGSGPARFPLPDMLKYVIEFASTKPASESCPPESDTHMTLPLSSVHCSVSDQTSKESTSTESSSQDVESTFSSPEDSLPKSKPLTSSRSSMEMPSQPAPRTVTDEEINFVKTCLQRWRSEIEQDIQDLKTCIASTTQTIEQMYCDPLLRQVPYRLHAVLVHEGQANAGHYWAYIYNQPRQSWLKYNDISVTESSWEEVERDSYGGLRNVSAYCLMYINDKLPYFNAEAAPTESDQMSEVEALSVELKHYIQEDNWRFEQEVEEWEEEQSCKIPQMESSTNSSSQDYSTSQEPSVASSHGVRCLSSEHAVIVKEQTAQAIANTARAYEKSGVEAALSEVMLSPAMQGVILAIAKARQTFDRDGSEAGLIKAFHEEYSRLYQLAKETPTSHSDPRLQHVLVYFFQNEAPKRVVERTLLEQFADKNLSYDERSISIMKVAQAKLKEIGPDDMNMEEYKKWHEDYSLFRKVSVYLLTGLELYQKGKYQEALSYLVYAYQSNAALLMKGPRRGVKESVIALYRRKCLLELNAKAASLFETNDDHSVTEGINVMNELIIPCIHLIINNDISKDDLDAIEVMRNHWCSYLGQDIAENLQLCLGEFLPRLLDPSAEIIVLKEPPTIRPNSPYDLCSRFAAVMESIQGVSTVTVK

`Cc1cnc2c(N)c(C(=O)NCCc3cc(F)c(N4CC5CNCC(C4)O5)cc3F)sc2n1` [Compound I-20] was tested, and the IC50 (USP28) was < 0.2 µM and the IC50 (USP25) was < 0.2 µM.
